Results taken from US8258184B1, “Use of vegetable butter-based cetyl myristoleate for treating osteoarthritis and other musculoskeletal disease conditions and injuries” (Botanoceuticals, Inc., priority 2002, dated 2012).

Assays:
[1] = system: arthritis in laboratory rats exposed to Freund's adjuvant; conditions: cited from earlier work
[2] = system: arthritis in Swiss albino mice; conditions: cited from earlier work
[3] = system: severe arthritis caused by injuries in a horse; assay: Treatment of osteoarthritis caused by injuries in a horse (Example 3, case report); type: in vivo; conditions: 30-year-old mare, previous treatments given together
Text: Joint Response was tried as a last resort.

Row | Compound | protection from arthritis [1] | protection from arthritis [2] | alleviation of discomfort by previous treatments [3]
1 | CCCC/C=C\CCCCCCCC(=O)OCCCCCCCCCCCCCCCC [CM, cetyl myristoleate] | protected | protected | –
2 | N[C@H]1C(O)O[C@H](CO)[C@@H](O)[C@@H]1O (some centres unmarked) [Glucosamine, glucosamine] | – | – | not working nearly well enough
3 | CS(C)(=O)=O [MSM, methylsulfonylmethane] | – | – | not working nearly well enough
4 | CCCCC1C(=O)N(c2ccccc2)N(c2ccccc2)C1=O [Butte] | – | – | not working nearly well enough
